From paper PMC7053711, “A G protein–coupled receptor mediates neuropeptide-induced oocyte maturation in the jellyfish Clytia” (PLoS Biology, 2020)
Peptide text beside a SMILES is read from it.

Columns and labels:
Clytia MIHR = test: Dose–response curves of Clytia MIHR, luminescence (CHO-K1 cells, Gα-16, GFP-apoaequorin); assay type: cell-based, Clytia hemisphaerica; set-up: key to Span (best-fit value) / Bottom (best-fit value): % activation, normalized to fitted upper plateau (100%); details: for EC50: four-parameter fit, variable slope, triplicate; for HillSlope / LogEC50: best-fit value; for Bottom / Span / Top: best-fit value (luminescence)
Experimental: The Clytia MIH amidated peptides are produced from two precursor genes Che-pp4 (generating multiple copies of WPRAamide, WPRYamide, and WPRPamide) and Che-pp1 (multiple copies of WPRPamide and RPRGamide).
Cell culture GPCR ligand response assays were performed as described. Briefly, CHO-K1 cells were cultured in Ham’s F12 Nut Mix medium (Thermo Fisher Scientific) with 10% foetal bovine serum. Cells were seeded in 96-well plates at approximately 10,000 cells/well and transfected the following day with pcDNA3.1(+) plasmids encoding each of the 16 candidate Clytia GPCRs (S2 Text), the promiscuous Gα-16 protein [65], and a reporter construct GFP-apoaequorin [66] (60 ng each) using the transfection reagent TurboFect (Thermo Fisher Scientific). After 2 days of expression, the medium was removed and replaced with Hank’s balanced salt solution (HBSS) supplemented with 1.8 mM Ca2+, 10 mM glucose, and […] coelenterazine h (Promega, Madison, WI). After incubation at 37 °C for 2 hours, cells were tested by adding synthetic peptides (GenScript) in HBSS supplemented with 1.8 mM Ca2^+ and 10 mM glucose. A list of all synthetic peptides used is provided in S2 Table. Luminescence was recorded for 45 seconds in a plate reader (BioTek Synergy Mx or Synergy H4; BioTek, Winooski, VT). Data were integrated over the 45-second measurement period and recorded as technical triplicates in each case. Data were normalized using the response of Platynereis FLamide receptor to 1 μM AKYFL-NH2 [28]. Dose–response curves were obtained using concentrations between 0.01 nM and 100 μM for each peptide. Data for dose–response curves were recorded in triplicate for each concentration and the experiment was repeated independently 3 times. Dose–response curves were fitted with a four-parameter curve using Prism 6 (GraphPad, La Jolla, CA) and were normalized to the calculated upper plateau values (100% activation).
Supplementary file pbio.3000614.s012.xlsx: S2 Data Numerical data corresponding to Fig 1C. The first three tabs show statistical values obtained using Prism 6 software (GraphPad, La Jolla, CA) from the raw luminescence values for 3 independent dose–response experiments. The raw luminescence values are shown, as well as the values normalized with respect to the maximum. […] MIH, maturation-inducing hormone. (XLSX) Click here for additional data file.

[1] = test system: fully grown oocytes isolated from WT gonads; test: Oocyte maturation assay, wild-type isolated oocytes (GVBD); assay type: cell-based, Clytia hemisphaerica; details: for Oocyte maturation (number) / Percentage of Oocytes maturing: 0,1uM WPRPa, wild type
From the text: Fig 4 Oocyte maturation failure in MIHR mutant medusae. Oocyte maturation assays performed using isolated gonads (A, B) or isolated oocytes (C) from MIHR mutant jellyfish compared to WT. In A and C, bar heights represent mean percentages of 3 independent experiments and error bars show standard deviations. Total gonad or oocyte numbers for each treatment are indicated in gray. (A) Spawning response of isolated gonads from WT and n5-23 female medusae. Three treatments were compared as indicated above each panel: Light: light stimulation after incubation in the dark; MIH: treatment of light-maintained gonads with 100 nM WPRPamide; cAMP: treatment of light-maintained gonads with 4 mM Br-cAMP. […] Full datasets from three independent experiments are available in S3 Data. (B) Light microscope images illustrating gonads from an equivalent experiment performed with n5-13 female MIHR mutant medusae 120 minutes after the indicated treatments. Scale bar: 500 μm. […] Full datasets from 3 independent experiments are available in S3 Data. Br-cAMP, bromoadenosine 3′,5′-cyclic monophosphate; cAMP, cyclic adenosine monophosphate; KO, knockout; MIH, maturation-inducing hormone; MIHR, MIH receptor; WT, wild-type.
Fully grown oocytes were isolated manually from dissected gonads of wild-type and MIHR KO mutant jellyfish prepared as above. Maturation assays were performed in wells of 96-well plates or small plastic petri dishes lined with 2% agarose in MFSW. Spontaneous maturation occurs at a low frequency in control oocytes. To test MIH-induced maturation, 10 μL WPRPamide from 1 μM solution in MFSW was added to a final concentration of 100 nM. In some experiments, Br-cAMP from a 20 mM stock in H2O was used at a final concentration of 4 mM. GVBD was scored at 30 minutes, every 5 minutes, depending on experiments.
Supplementary file pbio.3000614.s013.xlsx: S3 Data Numerical data corresponding to Fig 4A and 4C. The first tab collects all the raw data from 3 independent gonad spawning assays. Information corresponding to the Fisher exact tests is also shown. […] The means and standard deviations were used to prepare the graph in Fig 4C. Information corresponding to the Fisher exact tests is also shown. (XLSX) Click here for additional data file.

[2] = log(agonist) vs. response, variable slope (four parameters), fit of third dataset
[3] = 100 nM WPRPamide or 4 mM Br-cAMP
[4] = WPRPa, pooled n=47, Fisher exact test vs MIHR KO significant at p < .01

N=C(N)NCCC[C@H](NC(=O)[C@@H]1CCCN1C(=O)[C@@H](N)Cc1c[nH]c2ccccc12)C(=O)N1CCC[C@H]1C(N)=O [WPRPa] (H-WPRP-NH2; N-terminus assumed)
EC50 (Clytia MIHR; dataset/experiment 1): 220 nM
EC50 (Clytia MIHR; dataset/experiment 2): 928 nM
HillSlope (Clytia MIHR; first dataset): 1.128
LogEC50 (Clytia MIHR; first dataset): -6.658
Bottom (Clytia MIHR; first dataset): 935
Span (Clytia MIHR; first dataset): 46105
Top (Clytia MIHR; first dataset): 47040
Bottom (best-fit value) (Clytia MIHR; [2]): 10.51
HillSlope (best-fit value) (Clytia MIHR; [2]): 1.078
LogEC50 (best-fit value) (Clytia MIHR; [2]): -6.286
Span (best-fit value) (Clytia MIHR; [2]): 89.49
HillSlope (Clytia MIHR; second dataset): 0.9926
LogEC50 (Clytia MIHR; second dataset): -6.033
Bottom (Clytia MIHR; second dataset): 1493
Span (Clytia MIHR; second dataset): 22106
Top (Clytia MIHR; second dataset): 23599
Oocyte maturation (number) ([1]; replicate 1, total 13): 13
Percentage of Oocytes maturing ([1]; replicate 1, total 13): 100.00
Oocyte maturation (number) ([1]; replicate 2, total 19): 19
Percentage of Oocytes maturing ([1]; replicate 2, total 19): 100.00
Oocyte maturation (number) ([1]; replicate 3, total 15.00): 15
Percentage of Oocytes maturing ([1]; replicate 3, total 15.00): 100.00
maturation of isolated WT oocytes [1, 3]: triggered maturation of WT oocytes
time to visible GVBD, isolated WT oocytes [1, 3]: 20 to 30 min
Maturing oocytes, WT YES [1, 4]: 47
Non-maturing oocytes, WT NO [1, 4]: 0
